According to patent US7939517B2, “1,4,6-androstatriene-3,17-dione (“ATD”) for therapeutic uses” (priority 2004, dated 2011):

Legend:
aromatase enzyme [1] = target: T1, aromatase enzyme (Homo sapiens, UniProt P11511); details: inhibitor binding to the aromatase enzyme; from "recent studies"; cited from earlier work
T1 sequence (P11511 1-503): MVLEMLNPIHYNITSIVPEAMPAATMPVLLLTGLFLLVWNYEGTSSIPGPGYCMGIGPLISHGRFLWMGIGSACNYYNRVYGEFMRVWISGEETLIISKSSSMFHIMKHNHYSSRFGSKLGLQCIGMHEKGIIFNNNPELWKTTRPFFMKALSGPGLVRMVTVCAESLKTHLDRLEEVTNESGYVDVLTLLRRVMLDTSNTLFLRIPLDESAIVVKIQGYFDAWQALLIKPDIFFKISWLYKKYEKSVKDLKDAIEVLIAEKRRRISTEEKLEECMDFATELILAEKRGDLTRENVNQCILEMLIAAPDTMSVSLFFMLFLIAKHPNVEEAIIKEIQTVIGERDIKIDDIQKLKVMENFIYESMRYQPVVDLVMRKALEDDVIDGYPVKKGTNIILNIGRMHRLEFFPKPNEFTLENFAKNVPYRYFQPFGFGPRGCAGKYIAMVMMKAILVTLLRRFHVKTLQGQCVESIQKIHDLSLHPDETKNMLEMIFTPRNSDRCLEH

aromatase enzyme [2] = target: T1, aromatase enzyme; assay: aromatase enzyme inhibition (Ki); type: biochemical
Method: ATD acts as a suicide substrate by irreversibly binding to the aromatase enzyme and shutting down its activity. Because it is a non-androgenic compound, ATD has fewer side effects associated with anabolic/androgenic steroid use. […] A lower Ki value means the inhibitor binds more tightly to the enzyme and yields greater potency. […] Because it is administered in smaller doses, costs of use of ATD may also be lower. The savings may be passed on to the consumer and/or provide greater profits to the manufacturer. Additionally, with oral or percutaneous/transdermal doses of 25 mg to 150 mg per day in men, ATD will cause a significant increase in endogenous androgen levels with little or no decrease in endogenous estrogen.

Structure (SMILES)	Ki (aromatase enzyme [1])	ratio of the Ki values (AT concentration relative to ATD for the same effect) (aromatase enzyme [2])
C[C@]12CCC(=O)C=C1C(=O)C[C@@H]1[C@@H]2CC[C@]2(C)C(=O)CC[C@@H]12 [AT, androst-4-ene-3,6,17-trione]	430 nM	–
C[C@]12C=CC(=O)C=C1C=C[C@@H]1[C@@H]2CC[C@]2(C)C(=O)CC[C@@H]12 [ATD, 1,4,6-androstatriene-3,17-dione]	–	2.39 times
